Measurements from patent publication US12390440B2, “Immunomodulating trifluoromethyl-aminal azalides” (Zoetis Services LLC, priority 2020, dated 2025).
Values after ≈ are worked out from the molar mass of the structure shown.

How the values were obtained:
P. multocida = assay: Murine P. multocida intranasal challenge study, survival; type: in vivo; conditions: 32 mg/kg (T03) subcutaneous 18 hours after challenge, 5×10^3 CFU/mouse
Experimental: In one murine P. multocida intranasal challenge study, mice were administered tulathromycin (16 mg/kg; T02), M9 (32 mg/kg; T03), or ceftiofur (9 mg/kg; T04) by subcutaneous injection 18 hours after bacterial challenge (5×10^3 CFU/mouse) for lung tissue RNA sequence analysis. Survival at Day 7 was about 80%, 50%, and 90% for T02, T03, and T04, respectively, compared to placebo at 0%. Differential gene expression from total lung tissue RNA sequence analysis indicated at least 226 unique genes were up or down regulated (with significance) for T03. Output from ingenuity pathway analysis of these unique genes predicted major upstream regulators of the involved pathways. Data was analyzed based on the number of genes being modulated in the same direction that were associated with a given upstream regulator. An activation z-score of 2 or greater is considered significant and the direction change is indicated by + (activated) or − (inhibited). The top 5 pathways included: IL-9 signaling, glucocorticoid receptor signaling, prolactin signaling, JAK STAT signaling, and IL-17 signaling. The top 6 upstream regulators (activation z-score) included: lipopolysaccharide (−6.725), TNF (−4.669), IFNγ (−5.759), IL-1ß (−5.947), STAT1 (−2.787), and poly rI:rC-RNA (−5.289). Even though this study was run in the murine model, the top upstream regulators identified as being modulated by M9 include an almost ubiquitous overlap with the pathways identified in the natural disease study as being key mediators in BRD, and therefore is modulating highly relevant pathways in BRD pathobiology.

[1] = tested on: bovine respiratory disease (BRD); assay: Natural bovine respiratory disease study; type: in vivo, beef calves; conditions: 14-day observation, dosed on arrival to feedlot
Experimental: The primary clinical endpoint for efficacy was treatment failure/success over a 14-day observation period. Clinically normal beef calves (150-200 kg) at moderate risk for BRD were dosed on arrival to the feedlot. Animals (N=114/group) received saline (T01), 5 mg/kg M9 (T02) or 10 mg/kg M9 (T03); or Zactran (T04). […] Bacterial isolates were collected at necropsy and MICs were evaluated (Table 4).

NLRX1 = NLRX1 (Bos taurus, UniProt A7MB19); assay: Drug/protein binding partner, SPR: NLRX1; set-up: species or system bovine; conditions: PBMCs
Experimental: (§1) To further characterize the direct activity of the compounds of the invention, experiments to identify the drug's direct binding host partners(s) were performed with the aim of identifying the potential biological targets. Bovine primary cells (peripheral blood mononuclear cells [PBMCs] and polymorphonuclear cells [PMN/neutrophils]) and tissue (trachea, lung) protein homogenates were mixed with M9 and the macrolide, gamithromicin as a comparator. Tissue interactions were allowed to form using a heterogeneous assembly method (nematic protein organization technique, NPOT; Inoviem Scientific); and traditional western blots to identify native-structure proteins bound to the compound. Mass spectrometry analysis identified eight proteins involved in the interaction with M9 as compared to gamithromycin. The antibacterial macrolide gamithromycin was used as a comparator to differentiate specific binding to M9. These proteins were considered to be either direct binding partners of the drug or closely involved in the drug:target interaction (Table 6).
(§2) In order to add further clarity to binding partner identification, surface plasma resonance (SPR) technology was used. […]
(§3) KD is the equilibrium dissociation constant that was used to present the drug/target affinity. The identified targets associated with drug were measured by surface plasmon resonance (SPR) to define the KD.

S. aureus = assay: MIC, S. aureus; conditions: Staphylococcus aureus
IL-1β = assay: Bovine whole blood assay, IL-1β; type: cell-based; conditions: overstimulation of IL-1β, perceived cellular toxicity concentration;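 further: compound concentration at which rising IL-1β release signals cytotoxicity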
Experimental: (protected from light) for 30 minutes.

H. somni = assay: MIC, H. somni
[2] = tested on: bovine alveolar macrophages; assay: Phospholipidosis assay (HCS LipidTox); type: cell-based; conditions: Bos taurus, Macrophage
Text: The second immunomodulation in vitro assay evaluated the potential for phospholipidosis with the compounds of the invention in bovine alveolar macrophages. The phospholipidosis assay is being used as a convenient method for the evaluation of cellular uptake. This assay utilized Invitrogen's commercially available HCS LipidTox detection kit with an Incucyte real time fluorescence reader to observe variations in EC50 and phospholipidosis profiles based on compound concentrations (Table 2). […] Murine intraperitoneal macrophages were also used in the same assay to evaluate species variability for potential correlation with mouse efficacy results. The combination of the bovine whole blood assay and phospholipidosis assays enabled rank ordering for progression into in vivo testing in the murine challenge model.

BRD = assay: Separate study, M9 versus saline control: lung lesions and mortality; type: in vivo; conditions: 10 mg/kg
TLR4 = target: T1, TLR4 (Bos taurus, UniProt Q9GL65); assay: Drug/protein binding partner, SPR: TLR4; set-up: species or system bovine; conditions: PBMCs, Trachea
T1 sequence (Q9GL65 24-841): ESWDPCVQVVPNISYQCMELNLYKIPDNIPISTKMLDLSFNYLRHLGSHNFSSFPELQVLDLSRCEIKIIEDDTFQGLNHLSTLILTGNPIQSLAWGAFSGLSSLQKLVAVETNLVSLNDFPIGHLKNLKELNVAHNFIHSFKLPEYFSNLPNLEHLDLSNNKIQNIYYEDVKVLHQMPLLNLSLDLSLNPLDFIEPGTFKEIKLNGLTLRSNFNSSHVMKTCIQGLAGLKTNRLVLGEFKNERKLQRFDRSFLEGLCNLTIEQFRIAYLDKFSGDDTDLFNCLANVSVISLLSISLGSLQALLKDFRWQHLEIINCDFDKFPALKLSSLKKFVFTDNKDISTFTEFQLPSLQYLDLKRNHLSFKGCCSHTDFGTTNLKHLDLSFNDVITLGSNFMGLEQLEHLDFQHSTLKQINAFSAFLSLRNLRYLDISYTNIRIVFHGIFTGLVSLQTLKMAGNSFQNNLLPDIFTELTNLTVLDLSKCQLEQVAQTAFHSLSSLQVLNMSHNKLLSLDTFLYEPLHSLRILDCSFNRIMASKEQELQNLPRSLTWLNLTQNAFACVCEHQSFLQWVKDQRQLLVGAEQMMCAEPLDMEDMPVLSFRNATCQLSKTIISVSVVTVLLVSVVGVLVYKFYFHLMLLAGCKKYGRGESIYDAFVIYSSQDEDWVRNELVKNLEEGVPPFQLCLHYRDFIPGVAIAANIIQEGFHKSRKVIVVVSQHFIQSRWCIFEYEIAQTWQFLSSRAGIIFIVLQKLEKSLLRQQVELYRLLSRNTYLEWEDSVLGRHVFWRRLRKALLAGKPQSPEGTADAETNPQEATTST
Experimental: as §1, §2, §3

Chain of NLRX1 (A7MB19 1-973): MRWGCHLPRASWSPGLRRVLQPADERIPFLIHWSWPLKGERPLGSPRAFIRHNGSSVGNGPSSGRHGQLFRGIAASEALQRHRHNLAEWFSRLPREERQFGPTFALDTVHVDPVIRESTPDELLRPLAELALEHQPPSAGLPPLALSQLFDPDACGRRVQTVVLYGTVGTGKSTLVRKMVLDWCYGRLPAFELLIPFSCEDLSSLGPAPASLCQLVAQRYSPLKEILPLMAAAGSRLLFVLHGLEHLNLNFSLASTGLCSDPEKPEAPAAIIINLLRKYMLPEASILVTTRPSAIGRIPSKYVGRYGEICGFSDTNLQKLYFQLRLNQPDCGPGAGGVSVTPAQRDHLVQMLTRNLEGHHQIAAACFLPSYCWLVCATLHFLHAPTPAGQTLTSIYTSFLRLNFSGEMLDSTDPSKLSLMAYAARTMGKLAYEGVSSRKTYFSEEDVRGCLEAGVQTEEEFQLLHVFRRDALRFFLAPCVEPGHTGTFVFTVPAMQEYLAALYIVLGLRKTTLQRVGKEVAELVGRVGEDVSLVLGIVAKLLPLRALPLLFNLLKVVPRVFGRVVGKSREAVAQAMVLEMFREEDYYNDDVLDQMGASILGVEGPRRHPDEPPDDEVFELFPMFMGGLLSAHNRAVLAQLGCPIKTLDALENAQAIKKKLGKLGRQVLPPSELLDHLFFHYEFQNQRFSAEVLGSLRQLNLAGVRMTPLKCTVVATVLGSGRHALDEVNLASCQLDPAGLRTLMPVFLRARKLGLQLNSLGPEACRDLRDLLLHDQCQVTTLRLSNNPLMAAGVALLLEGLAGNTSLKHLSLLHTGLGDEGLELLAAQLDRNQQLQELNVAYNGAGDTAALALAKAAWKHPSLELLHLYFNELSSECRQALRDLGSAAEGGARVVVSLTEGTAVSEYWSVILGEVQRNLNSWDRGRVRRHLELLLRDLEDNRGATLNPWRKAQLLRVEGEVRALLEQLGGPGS

With `CCCNC[C@]1(O)[C@H](C)O[C@@H](O[C@H]2[C@H](C)[C@@H](O[C@@H]3O[C@H](C)C[C@H](NC)[C@H]3O)[C@](C)(O)C[C@@H](C)CN[C@H](C)[C@@H](O)[C@](C)(O)[C@@H](CC)OC(=O)[C@@H]2C)C[C@@]1(C)OC` [Example M9, (2R,3S,4R,5R,8R,10R,11R,12S,13S,14R)-2-ethyl-3,4,10-trihydroxy-13-(((2R,4R,5S,6S)-5-hydroxy-4-methoxy-4,6-dimethyl-5-((propylamino)methyl)-tetrahydro-2H-pyran-2-yl)oxy)-11-(((2S,3R,4S,6R)-3-hydroxy-6-methyl-4-(methylamino)tetrahydro-2H-pyran-2-yl)oxy)-3,5,8,10,12,14-hexamethyl-1-oxa-6-azacyclopentadecan-15-one] the “Survival at Day 7” value (P. multocida) was about 50%, the Percent failure ([1]; 5 mg/kg (T02)) was 19.3% and the Percent failure ([1]; 10 mg/kg (T03)) was 8.8%. The “Interaction KD” value (NLRX1) was “Indirect”, the MIC (S. aureus) was 64 µg/mL (≈ 80.8 µM) and the “IL-1β OS of LPS” value (IL-1β) was over 500 µM. For the same molecule, the MIC50 (H. somni) was 32 µg/mL (≈ 40.4 µM), the MIC90 (H. somni) was 32 µg/mL (≈ 40.4 µM) and the EC50 [2] was 53.7 µM. The lung lesions (BRD; versus saline control 31%, p=0.023) was 20%, the Mortality (BRD; versus saline control 38.9%, p=0.025) was 13% and the “Interaction KD” value (TLR4) was “Indirect”.
